Test results as given in ChEMBL document CHEMBL3227931, “10-(Alkylamino)-4H-thieno[3,4-b][1,5]benzodiazepines. A novel class of potential neuroleptic agents” (J Med Chem, 1979).
Calls of active or inactive are those of the source. The calls are words filed in the database; no cut-off is given here.

What was measured:
Mus musculus [1] = assay: Antidepressant activity in po dosed mouse assessed as inhibition of tetrabenazine hexamate-induced depression administered 1 hr followed by tetrabenazine hexamate challenge measured after 30 mins; assay type: functional; conditions: read-out: MED
Mus musculus [2] = assay: Neuroleptic activity in po dosed mouse assessed as inhibition of d-amphetamine sulfate-induced lethality administered for 0.5 hrs followed by d-amphetamine sulfate challenge measured after 24 hrs; assay type: functional
Rattus norvegicus [3] = assay: Neuroleptic activity in po dosed rat assessed as concentration required to cause 50% reduction of motor activity; assay type: functional
Mus musculus [4] = assay: Antidepressant activity in mouse assessed as inhibition of tetrabenazine hexamate-induced depression at 25 mg/kg, po administered 1 hr followed by tetrabenazine hexamate challenge measured after 30 mins; assay type: functional, organism-based; set-up: dose 25 mg/kg
Rattus norvegicus [5] = assay: Induction of catalepsy in po dosed rat measured for 0.5 to 18 hrs; assay type: organism-based; conditions: in vivo
Mus musculus [6] = assay: Neuroleptic activity in mouse assessed as inhibition of d-amphetamine sulfate-induced lethality at 20 mg/kg, ip administered for 0.5 hrs followed by d-amphetamine sulfate challenge measured after 24 hrs; assay type: functional, organism-based; set-up: dose 20 mg/kg
Rattus norvegicus [7] = assay: Neuroleptic activity in rat assessed as reduction of motor activity at 50 mg/kg, ip; assay type: functional, organism-based; set-up: dose 50 mg/kg

| SMILES | minimal effective dose (Mus musculus [1]) [mg/kg] | ED50 (Mus musculus [2]) [mg/kg] | MDD50 (Rattus norvegicus [3]) [mg/kg] | inhibition (Mus musculus [4]) | ED50 (Rattus norvegicus [5]) [mg/kg] | inhibition (Mus musculus [6]) | Activity (Rattus norvegicus [7]) |
| --- | --- | --- | --- | --- | --- | --- | --- |
| CCN1CCN(C2=Nc3ccccc3N(C)c3cscc32)CC1.O=C(O)/C=C/C(=O)O | 6.25 | – | – | – | – | – | – |
| CCN1CCN(C2=Nc3cc(Cl)ccc3N(C)c3cscc32)CC1.O=C(O)/C=C/C(=O)O | – | 1.1 | 7.3 | inactive | – | – | – |
| CN1CCN(C2=Nc3ccccc3N(C)c3cscc32)CC1 | 3.1 | 3.6 | 12 | – | 14 | – | – |
| CCN1c2ccccc2N=C(N2CCN(CCO)CC2)c2cscc21.O=C(O)/C=C/C(=O)O | – | – | 50 | inactive | – | – | – |
| CCN1CCN(C2=Nc3ccccc3N(CC)c3cscc32)CC1.O=C(O)/C=C/C(=O)O | 25 | – | 28 | – | – | – | – |
| CN(C)CCCN1c2ccccc2Sc2ccc(Cl)cc21 [CHLORPROMAZINE] | – | 0.6 | 2 | inactive | 7 | – | – |
| CC(=O)OCCN1CCN(C2=Nc3cc(Cl)ccc3N(C)c3cscc32)CC1.O=C(O)/C=C/C(=O)O | – | 3.2 | 26.7 | inactive | – | – | – |
| CN1CCN(C2=Nc3cc(Cl)c(Cl)cc3N(C)c3cscc32)CC1.O=C(O)/C=C/C(=O)O | – | 8 | 35.9 | inactive | – | – | – |
| CCCN1CCN(C2=Nc3cc(Cl)ccc3N(C)c3cscc32)CC1.O=C(O)/C=C/C(=O)O | – | – | 24 | inactive | – | inactive | – |
| Cc1ccc2c(c1)Nc1cscc1C(N1CCN(C)CC1)=N2 | – | 5.8 | 9 | – | – | – | – |
| Cc1cc2c(cc1C)N(C)c1cscc1C(N1CCN(C)CC1)=N2.O=C(O)/C=C/C(=O)O | – | – | 58 | inactive | – | inactive | – |
| CCN1c2ccccc2N=C(N2CCN(C)CC2)c2cscc21.O=C(O)/C=C/C(=O)O | 6.25 | 5.7 | 23 | – | – | – | – |
| CN1CCN(C2=Nc3ccc(Cl)cc3N(C)c3cscc32)CC1 | 12.5 | – | – | – | – | inactive | – |
| CN1CCN(C2=Nc3ccccc3Nc3cscc32)CC1 | – | 6 | 6.1 | – | 11 | – | – |
| CCCN1CCN(C2=Nc3ccccc3Nc3cscc32)CC1 | – | 6 | 27 | – | – | – | – |
| CN1CCN(C2=Nc3ccccc3N(C)c3cscc32)CC1.O=C(O)/C=C/C(=O)O | 3.1 | 4.8 | 8.7 | – | – | – | – |
| CCN1CCN(C2=Nc3ccccc3Nc3cscc32)CC1 | – | – | 6.3 | – | – | – | – |

| SMILES | minimal effective dose (Mus musculus [1]) [mg/kg] | ED50 (Mus musculus [2]) [mg/kg] | MDD50 (Rattus norvegicus [3]) [mg/kg] | inhibition (Mus musculus [4]) | ED50 (Rattus norvegicus [5]) [mg/kg] | inhibition (Mus musculus [6]) | Activity (Rattus norvegicus [7]) |
| --- | --- | --- | --- | --- | --- | --- | --- |
| CN1CCN(C2=Nc3cc(Cl)ccc3Nc3cscc32)CC1 | – | – | 13.9 | – | 16 | – | – |
| CN1CCN(C2=Nc3ccccc3N(C)c3c2csc3Cl)CC1.O=C(O)/C=C/C(=O)O | 3.1 | – | – | – | – | inactive | inactive |
| OCCN1CCN(C2=Nc3ccccc3Nc3cscc32)CC1 | – | – | 33.1 | – | – | – | – |
| CN(C)C1=Nc2ccccc2Nc2cscc21 | – | – | 26.5 | – | – | – | – |
| CN1CCN(C2=Nc3cc(Cl)ccc3Nc3ccccc32)CC1 [CLOZAPINE] | – | 2 | 21 | inactive | 76 | – | – |
| CN1c2ccccc2N=C(N2CCN(CCO)CC2)c2cscc21.O=C(O)/C=C/C(=O)O | 12.5 | – | 21.3 | – | – | inactive | – |
| Cc1cc2c(cc1C)Nc1cscc1C(N1CCCCC1)=N2 | – | – | 50 | – | – | inactive | – |
| CN1CCN(C2=Nc3cc(Cl)ccc3N(C)c3cscc32)CC1.O=C(O)/C=C/C(=O)O | – | 1.4 | 17 | inactive | 40 | – | – |
| Cc1cc2c(cc1C)Nc1cscc1C(N1CCN(C)CC1)=N2 | – | – | 26.2 | – | – | – | – |
| CN(C)CCCN1c2ccccc2CCc2ccccc21 [IMIPRAMINE] | 12 | > 20 | >50 | – | – | – | – |
| Cc1cc2c(cc1C)Nc1cscc1C(NCCN1CCCCC1)=N2 | – | – | 50 | – | – | inactive | – |
| CN1c2ccccc2N=C(N2CCNCC2)c2cscc21.O=C(O)/C=C/C(=O)O | 3.1 | – | – | – | – | inactive | inactive |
| COc1ccc2c(c1)Nc1cscc1C(N1CCN(C)CC1)=N2 | – | 1.1 | 16.1 | – | 15 | – | – |
| CN1c2ccc(Cl)cc2N=C(N2CCN(CCO)CC2)c2cscc21.Cl | – | 2 | 20.4 | inactive | 13 | – | – |
| CN1CCN(C2=Nc3ccc(Cl)cc3Nc3cscc32)CC1 | – | – | 12.3 | – | 16 | inactive | – |
| c1ccc2c(c1)N=C(NCCN1CCCCC1)c1cscc1N2 | – | – | 37 | – | – | – | – |
